# Experimental data as given in patent US20050090471A1, “Inhibitors of cyclin-dependent kinases, compositions and uses related thereto” (GPC Biotech, Inc, priority 2001, published 2005).
# Test system: HCT-116 cells
# Experiment: Clonogenic survival assay with HCT-116 cells
# Format: cell-based
# Settings: Homo sapiens, 24 h exposure, read-out: HCT-116 IC50 clonogenic 24 h
# Procedure: This assay was used to determine the concentration of a compound that results irreversible loss of viability after a specified period of exposure.
# Media (RPMI-1640, 10% FCS, pen/strep) was pre-warnied to 37° C. in a water bath. Cells were incubated and grown at 37° C., 5% CO2. Cells were recovered by trypsinization from sub-confluent plates and counted using a hemocytometer. 1×10^4 cells were plated in 25 mls of media in a 15 cm tissue culture dish. 14 plates were set up for each test compound, and were incubated overnight at 37° C. The compound was diluted into media at 7 concentrations and the media on the cells was replaced with that containing the test compound. Two plates were set up for each concentration of the compound to be tested, as well as two control plates without compound. […] Colonies were stained with crystal violet solution (0.4% crystal violet, 20 % ethanol) for 5 minutes, washed twice with distilled water, and counted.
smiles,measurement,value
CC(C)N1CCN(Cc2cc(-c3[nH]nc4c3C(=O)c3c(NC(=O)NN5CCOCC5)cccc3-4)ccc2O)CC1.Cl.Cl.Cl.Cl [K],IC50,< 1000 nM
